Experimental data: patent US20210330696A1, “A HIGH CAPACITY PLATFORM FOR IMMUNOGENIC CANCER CELL DEATH” (priority 2018, published 2021)
In brackets after ≈: the same amount, converted by molar mass.

What was measured:
glioblastoma cells = conditions: 2 h after injection; cited from earlier work
DNA = conditions: cited from earlier work
cancer cells = conditions: cited from earlier work
[1] = mouse, in vivo; cited from earlier work
[2] = cited from earlier work
4T1 tumor = experiment: 19F MRI of 4T1 tumor infiltration by myeloid cells (V-Sense); format: in vivo; conditions: 48 h post intratumoral injection, compared to PBS
Method: FIG. 17. MR imaging of 4T1 tumor infiltration by myeloid cells. The perfluorocarbon emulsion V-Sense was injected intravascularly and carrier macrophages were imaged by 19F MRI 48 h post control or IL-12 intraturrioral injection.
V-sense is a commercial ^19F-perfluorocarbon emulsion used to track macrophage infiltration into inflammatory tissues. Ahrens et al. (2011) successfully quantified V-sense in inflamed tissues of the central nervous system in an […] model of allergic encephalomyelitis, which they correlated with immunohistochemistry to confirm co-localization of V-sense emulsion droplets and macrophages. Hitchens et al. (2011) detected V-sense labeled macrophages in a model of cardiac allograft rejection. In FIG. 12, the ^19F contrast in tumors is shown based on infiltration of V-sense containing macrophages. In vitro fluorescent imaging confirmed V-sense (red) uptake by RAW macrophages (FIG. 15). […] The color spectrum indicates the concentration of V-sense, which is analogous to phagocytic myeloid cell density.

tumor immunocytes = tumor immunocytes by flow cytometry after IL-12; format: in vivo; conditions: 24 h after treatment
Source text: FIGS. 21A-B. Tumor immunocytes. A) Flow cytometry dot blots showing gating for myeloid and T cell populations. B) Percent immunocytes in control vs IL-12 treated tumors.
Tumor phenotyping. Flow cytometry and immunohistochemistry are used to characterize PD-L1 expression and the presence of effector and regulatory T cells, myeloid and DC, vascularity and stromal cells in tumors and lymphatic tissue. Immunosuppressive regulators in the tumor include T regulatory (Treg) and […] (MDSC). Tregs (CD4^+/FoxP3^+) and MDSC [CD11b^+/Gr-1(Ly6-CIG)^+] suppress effective antitumor immune responses. CD4^+ and CD8^+ T cells are the primary adaptive immune cell mediators within the tumor and the proportion of T cell subsets and DC present in the tumor plays a critical role in tumor rejection. […] Single cell suspensions are prepared from tumors and spleen. After Fc receptor blockade with anti-CD16/CD32 antibodies in 1% mouse serum/1 mM EDTA, cells are permeabilized for intracellular staining or stained directly with antibodies identifying discrete immune cell populations, as described below. […] Specificity of binding to naïve or memory/effector cells is evaluated using fluorescent antibodies that recognize CD45RA, CCR7, and FOXP3. […] Apoptotic tumor cells are detected using DeadEnd Colorimetric TUNEL System, and proliferating cells will be identified using Ki-67. […]

## O=c1[nH]c(=O)n([C@@H]2O[C@H](CO)[C@@H](O)[C@@H]2F)cc1[124I] [^124I-FIAU, ^124I-2′-fluoro-2′-deoxy-5-iodo-1-beta-D-arabinofurariosyluracil]
Glioblastoma cells
  increase in reporter expression: 28 fold

## N.N.[Cl][Pt][Cl] [cisplatin, cis-diamminedichloroplatinum (II)]
DNA
  DNA adduct formation relative to oxaliplatin: 10 times
Cancer cells
  number of ICD hallmarks stimulated: 2

## COc1cccc2c1C(=O)c1c(O)c3c(c(O)c1C2=O)C[C@@](O)(C(=O)CO)C[C@@H]3O[C@H]1C[C@H](N)[C@H](O)[C@H](C)O1 [DOX, doxorubicin]
[1]
  MTD: 6 mg/kg
[2]
  IC50: 0.08 µg/mL (≈ 0.147 µM)

B1: IL-12: Proinflammatory Th1 cytokine interleukin-12 (protein, UniProt P29459 23-219; P29460 23-328, looked up)
Interleukin-12 subunit alpha: RNLPVATPDPGMFPCLHHSQNLLRAVSNMLQKARQTLEFYPCTSEEIDHEDITKDKTSTVEACLPLELTKNESCLNSRETSFITNGSCLASRKTSFMMALCLSSIYEDLKMYQVEFKTMNAKLLMDPKRQIFLDQNMLAVIDELMQALNFNSETVPQKSSLEEPDFYKTKIKLCILLHAFRIRAVTIDRVMSYLNAS
Interleukin-12 subunit beta: IWELKKDVYVVELDWYPDAPGEMVVLTCDTPEEDGITWTLDQSSEVLGSGKTLTIQVKEFGDAGQYTCHKGGEVLSHSLLLLHKKEDGIWSTDILKDQKEPKNKTFLRCEAKNYSGRFTCWWLTTISTDLTFSVKSSRGSSDPQGVTCGAATLSAERVRGDNKEYEYSVECQEDSACPAAEESLPIEVMVDAVHKLKYENYTSSFFIRDIIKPDPPKNLQLKPLKNSRQVEVSWEYPDTWSTPHSYFSLTFCVQVQGKSKREKKDRVFTDKTSATVICRKNASISVRAQDRYYSSSWSEWASVPCS
4T1 tumor
  frequency of phagocytic cells within the tumor periphery: increased the frequency of phagocytic cells
Tumor immunocytes
  CD4+ and CD8+ T cells in the tumor: increases CD4^+ and CD8^+ T cells
  MDSC in the tumor: decreases MDSC
